Laboratory results reported in the NIST ThermoML archive (doi:10.1016/j.jct.2015.12.005).
Values joined by “and” are separate entries in the source; they are usually repeats but may differ in a detail not shown here. Equal values may be shown once.

Experiments:
[1] = for mass density: Vibrating tube method; for vapor or sublimation pressure: Twin ebulliometer; for Triple point temperature: Adiabatic calorimetry
[2] = Molar enthalpy of transition or fusion; conditions: Adiabatic calorimetry

c1ccc2c(c1)CCC2 [indane]
[1]
Conditions	mass density [kg/m3]	molar entropy [J/K/mol]	vapor or sublimation pressure
5 K, Crystal 2, Vacuum adiabatic calorimetry	–	0.09977	–
10 K, Crystal 2, Vacuum adiabatic calorimetry	–	0.873	–
20 K, Crystal 2, Vacuum adiabatic calorimetry	–	5.878	–
30 K, Crystal 2, Vacuum adiabatic calorimetry	–	13.6	–
40 K, Crystal 2, Vacuum adiabatic calorimetry	–	22.12	–
50 K, Crystal 2, Vacuum adiabatic calorimetry	–	30.71	–
60 K, Crystal 2, Vacuum adiabatic calorimetry	–	39.24	–
62 K, Crystal 2, Vacuum adiabatic calorimetry	–	40.96	–
64 K, Crystal 2, Vacuum adiabatic calorimetry	–	42.68	–
66 K, Crystal 2, Vacuum adiabatic calorimetry	–	44.42	–
68 K, Crystal 2, Vacuum adiabatic calorimetry	–	46.19	–
70 K, Crystal 2, Vacuum adiabatic calorimetry	–	48	–
72 K, Crystal 2, Vacuum adiabatic calorimetry	–	49.85	–
73.83 K, Crystal 1, Vacuum adiabatic calorimetry	–	53.65	–
73.83 K, Crystal 2, Vacuum adiabatic calorimetry	–	51.59	–
74 K, Crystal 1, Vacuum adiabatic calorimetry	–	53.79	–
76 K, Crystal 1, Vacuum adiabatic calorimetry	–	55.33	–
78 K, Crystal 1, Vacuum adiabatic calorimetry	–	56.85	–
80 K, Crystal 1, Vacuum adiabatic calorimetry	–	58.36	–
90 K, Crystal 1, Vacuum adiabatic calorimetry	–	65.61	–
100 K, Crystal 1, Vacuum adiabatic calorimetry	–	72.48	–
120 K, Crystal 1, Vacuum adiabatic calorimetry	–	85.36	–
140 K, Crystal 1, Vacuum adiabatic calorimetry	–	97.4	–
160 K, Crystal 1, Vacuum adiabatic calorimetry	–	108.88	–
180 K, Crystal 1, Vacuum adiabatic calorimetry	–	120	–
200 K, Crystal 1, Vacuum adiabatic calorimetry	–	130.94	–
220 K, Crystal 1, Vacuum adiabatic calorimetry	–	141.81	–
221.79 K, Crystal 1, Vacuum adiabatic calorimetry	–	142.78	–
323.15 K, Liquid	937.2	–	–
338.12 K, Liquid	–	–	2 kPa
344.12 K, Liquid	–	–	2.666 kPa
348.15 K, Liquid	915.6	–	–
353.03 K, Liquid	–	–	4 kPa
359.69 K, Liquid	–	–	5.333 kPa
369.61 K, Liquid	–	–	7.999 kPa
373.15 K, Liquid	893.7	–	–
377.06 K, Liquid	–	–	10.67 kPa
383.1 K, Liquid	–	–	13.33 kPa
389.37 K, Liquid	–	–	16.66 kPa
394.58 K, Liquid	–	–	19.93 kPa
398.15 K, Liquid	871.2	–	–
401.44 K, Liquid	–	–	25.02 kPa and 25.02 kPa
408.36 K, Liquid	–	–	31.17 kPa
415.33 K, Liquid	–	–	38.56 kPa
422.35 K, Liquid	–	–	47.37 kPa
423.15 K, Liquid	848.5	–	–
429.42 K, Liquid	–	–	57.81 kPa
436.54 K, Liquid	–	–	70.11 kPa
443.71 K, Liquid	–	–	84.53 kPa
448.15 K, Liquid	824.8	–	–
450.93 K, Liquid	–	–	101.32 kPa
458.2 K, Liquid	–	–	120.78 kPa
465.53 K, Liquid	–	–	143.23 kPa
472.9 K, Liquid	–	–	169 kPa
473.15 K, Liquid	799.8	–	–
480.33 K, Liquid	–	–	198.46 kPa
487.8 K, Liquid	–	–	231.99 kPa
495.33 K, Liquid	–	–	269.98 kPa
498.15 K, Liquid	774	–	–
523.15 K, Liquid	745.8	–	–

[1], Liquid
Conditions	molar entropy [J/K/mol]
221.79 K, Vacuum adiabatic calorimetry	181.35
230 K, Vacuum adiabatic calorimetry	187.35
240 K, Vacuum adiabatic calorimetry	194.49
250 K, Vacuum adiabatic calorimetry	201.46
260 K, Vacuum adiabatic calorimetry	208.28
270 K, Vacuum adiabatic calorimetry	214.98
280 K, Vacuum adiabatic calorimetry	221.57
290 K, Vacuum adiabatic calorimetry	228.06
298.15 K, Vacuum adiabatic calorimetry	233.26
300 K, Vacuum adiabatic calorimetry	234.44
310 K, Vacuum adiabatic calorimetry	240.74
320 K, Vacuum adiabatic calorimetry	246.96
330 K, Vacuum adiabatic calorimetry	253.13
333.38 K, Vacuum adiabatic calorimetry	255.19
340 K, Vacuum adiabatic calorimetry	259.22
350 K, Vacuum adiabatic calorimetry	265.26
360 K, Vacuum adiabatic calorimetry	271.24
370 K, Vacuum adiabatic calorimetry	277.19
380 K, Vacuum adiabatic calorimetry	283.07
390 K, Vacuum adiabatic calorimetry	288.92
400 K, Vacuum adiabatic calorimetry	294.73
410 K, Vacuum adiabatic calorimetry	300.49
420 K, Vacuum adiabatic calorimetry	306.23
430 K, Vacuum adiabatic calorimetry	311.92
440 K, Vacuum adiabatic calorimetry	317.58
450 K, Small sample (50 mg) DSC	323.22
460 K, Small sample (50 mg) DSC	328.83
470 K, Small sample (50 mg) DSC	334.43
480 K, Small sample (50 mg) DSC	340.01
490 K, Small sample (50 mg) DSC	345.57
500 K, Small sample (50 mg) DSC	351.1
510 K, Small sample (50 mg) DSC	356.62
520 K, Small sample (50 mg) DSC	362.11
530 K, Small sample (50 mg) DSC	367.58
540 K, Small sample (50 mg) DSC	373.04
550 K, Small sample (50 mg) DSC	378.48
560 K, Small sample (50 mg) DSC	383.9
570 K, Small sample (50 mg) DSC	389.31
580 K, Small sample (50 mg) DSC	394.7
590 K, Small sample (50 mg) DSC	400.08
600 K, Small sample (50 mg) DSC	405.43

Conditions	Molar enthalpy of transition or fusion, [2] [kcal/mol]	Triple point temperature, [1] [K]
Crystal 1	2.044	221.79
Crystal 2	0.0363	73.83
